Measurements published in US10065950B2, “Substituted thiazoles as HIV integrase inhibitors” (Japan Tobacco Inc., priority 2010, dated 2018).
pIC50: −log10 of the molar value.

target: HIV-1 pNL4-3 integrase (Human immunodeficiency virus type 1 group M subtype B (isolate NY5) (HIV-1), UniProt P12497); experiment: Determination of enzyme (HIV integrase) inhibitory activity; format: biochemical; conditions: calculated from inhibition rate (fluorescence)
Method in brief: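 Full-length pNL4-3 integrase from E. coli (0.75 μM stock) reacted 60 min at 37° C with compound and biotinylated donor DNA bound to streptavidin plates, in MOPS buffer with 5 mM MgCl2 and 10% DMSO. Digoxigenin-labelled target DNA (25 nM stock) then added for 20 min; strand transfer read by peroxidase anti-digoxigenin fluorescence (Ex 325/Em 420 nm).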

SMILES | pIC50
COC[C@@H]1[C@@H](C)N(C(C)C)C(=O)c2c(O)c(=O)c(-c3nnc(Cc4ccc(F)cc4)s3)cn21 [Example 288] | 8.06
CCN1C(=O)c2c(O)c(=O)c(-c3nnc(Cc4ccc(F)cc4)s3)cn2[C@H](COC)[C@H]1C [Example 289] | 8.00
CC(C)N1C[C@](C)(C(=O)N2CCC(=O)C2)n2cc(-c3ncc(Cc4ccc(F)cc4)s3)c(=O)c(O)c2C1=O [Example 290] | 7.85
CC[C@@H]1Cn2cc(-c3nnc(Cc4ccc(F)cc4)s3)c(=O)c(O)c2C(=O)N1CC [Example 291] | 8.06
CCN1C(=O)c2c(O)c(=O)c(-c3ncc(Cc4ccc(F)cc4)s3)cn2C[C@]1(C)C(=O)NC [Example 292] | 8.14
CCN1C(=O)c2c(O)c(=O)c(-c3ncc(Cc4ccc(F)cc4)s3)cn2C[C@]1(C)C(=O)N(C)C [Example 293] | 8.02
CCN1C(=O)c2c(O)c(=O)c(-c3ncc(Cc4ccc(F)cc4)s3)cn2C[C@]1(C)C(=O)N1CCCC1 [Example 294] | 7.96
CCC(CC)N1C(=O)c2c(O)c(=O)c(-c3nnc(Cc4ccc(F)cc4)s3)cn2C[C@H]1COC [Example 295] | 7.92
CCN1C[C@](C)(COCCOC)n2cc(-c3nnc(Cc4ccc(F)cc4)s3)c(=O)c(O)c2C1=O [Example 296] | 7.72
COCCOC[C@@]1(C)CN(C2CC2)C(=O)c2c(O)c(=O)c(-c3nnc(Cc4ccc(F)cc4)s3)cn21 [Example 297] | 7.70
CCN1C(=O)c2c(O)c(=O)c(-c3nnc(Cc4ccc(F)cc4)s3)cn2[C@@H](C)[C@@H]1COC [Example 298] | 8.05
COC[C@H]1[C@H](C)n2cc(-c3nnc(Cc4ccc(F)cc4)s3)c(=O)c(O)c2C(=O)N1C(C)C [Example 299] | 8.01
CCN1C(=O)c2c(O)c(=O)c(-c3nnc(CCc4ccc(F)cc4F)s3)cn2C[C@H]1COC [Example 300] | 8.05
CCN1C(=O)c2c(O)c(=O)c(-c3nnc(Cc4ccc(F)cc4)s3)cn2CC1(COC)COC [Example 301] | 8.10
COC[C@H]1CN([C@H](C)C2CC2)C(=O)c2c(O)c(=O)c(-c3nnc(Cc4ccc(F)cc4)s3)cn21 [Example 302] | 8.00
CC[C@@H]1Cn2cc(-c3nnc(Cc4ccc(F)cc4)s3)c(=O)c(O)c2C(=O)N1CC1CC1 [Example 303] | 8.24
COC[C@@H]1[C@@H](C)n2cc(-c3nnc(Cc4ccc(F)cc4)s3)c(=O)c(O)c2C(=O)N1C(C)C [Example 304] | 8.04
CCN1C(=O)c2c(O)c(=O)c(-c3nnc(Cc4ccc(F)cc4)s3)cn2[C@H](C)[C@H]1COC [Example 305] | 8.02
CC(C)N1C(=O)c2c(O)c(=O)c(-c3nnc(Cc4ccc(F)cc4)s3)cn2C[C@@]1(C)C(=O)N1CCCC1 [Example 306] | 8.00
CCNC(=O)[C@]1(C)Cn2cc(-c3nnc(Cc4ccc(F)cc4)s3)c(=O)c(O)c2C(=O)N1C(C)C [Example 307] | 7.96
CC(C)NC(=O)[C@]1(C)Cn2cc(-c3nnc(Cc4ccc(F)cc4)s3)c(=O)c(O)c2C(=O)N1C(C)C [Example 308] | 7.89
CC(C)N1C(=O)c2c(O)c(=O)c(-c3nnc(Cc4ccc(F)cc4)s3)cn2C[C@@]1(C)C(=O)NC(C)(C)C [Example 309] | 8.06
CC(C)N1C(=O)c2c(O)c(=O)c(-c3nnc(Cc4ccc(F)cc4)s3)cn2C[C@@]1(C)C(=O)N1CCC1 [Example 310] | 8.00

SMILES | pIC50
CC(C)N1C(=O)c2c(O)c(=O)c(-c3nnc(Cc4ccc(F)cc4)s3)cn2C[C@@]1(C)C(=O)N1CCOCC1 [Example 311] | 8.01
CC(C)N1C(=O)c2c(O)c(=O)c(-c3nnc(Cc4ccc(F)cc4)s3)cn2C[C@@]1(C)C(=O)O [Example 312] | 7.92
CN(C)C(=O)[C@@]1(C)CN(C)C(=O)c2c(O)c(=O)c(-c3nnc(Cc4ccc(F)cc4)s3)cn21 [Example 313] | 8.01
CN(C)C(=O)[C@@]1(C)CN(C)C(=O)c2c(O)c(=O)c(-c3ncc(Cc4ccc(F)cc4)s3)cn21 [Example 314] | 8.10
CC(C)N1C(=O)c2c(O)c(=O)c(-c3nnc(Cc4ccc(F)cc4)s3)cn2C[C@@]1(C)C(=O)N(C)C [Example 315] | 8.06
COC[C@H]1CN([C@@H](C)C2CC2)C(=O)c2c(O)c(=O)c(-c3nnc(Cc4ccc(F)cc4)s3)cn21 [Example 316] | 7.92
COC[C@@H]1Cn2cc(-c3nnc(CCc4ccc(F)cc4F)s3)c(=O)c(O)c2C(=O)N1C(C)C [Example 317] | 8.01
CCN1C(=O)c2c(O)c(=O)c(-c3nnc(Cc4ccc(F)cc4)s3)cn2C[C@]1(C)COC [Example 318] | 8.19
CCN1C(=O)c2c(O)c(=O)c(-c3nnc(Cc4ccc(F)cc4F)s3)cn2CC1(COC)COC [Example 319] | 8.24
COCC1(COC)Cn2cc(-c3nnc(Cc4ccc(F)cc4)s3)c(=O)c(O)c2C(=O)N1C(C)C [Example 320] | 8.03
CC(C)N1C(=O)c2c(O)c(=O)c(-c3nnc(Cc4ccc(F)cc4F)s3)cn2C[C@@]1(C)C(=O)N(C)C [Example 321] | 8.15
CCN1C(=O)c2c(O)c(=O)c(-c3nnc(Cc4ccc(F)cc4)s3)cn2C[C@]1(C)COCCOC [Example 323] | 7.85
CC[C@@H]1Cn2cc(-c3ncc(Cc4ccc(F)cc4)s3)c(=O)c(O)c2C(=O)N1CC [Example 327] | 8.23
CCN1C(=O)c2c(O)c(=O)c(-c3nnc(Cc4ccc(F)cc4)s3)cn2C[C@H]1C [Example 328] | 8.15
CCN1C(=O)c2c(O)c(=O)c(-c3ncc(Cc4ccc(F)cc4)s3)cn2C[C@H]1C(C)C [Example 329] | 8.21
CCN1C(=O)c2c(O)c(=O)c(-c3ncc(Cc4ccc(F)cc4)s3)cn2C[C@H]1C [Example 330] | 8.19
CCN(C)C(=O)[C@]1(C)Cn2cc(-c3nnc(Cc4ccc(F)cc4)s3)c(=O)c(O)c2C(=O)N1C(C)C [Example 331] | 8.03
CCN1C(=O)c2c(O)c(=O)c(-c3nnc(Cc4ccc(F)cc4)s3)cn2C[C@H]1[C@H](C)OC [Example 332] | 7.92
CCN1C(=O)c2c(O)c(=O)c(-c3ncc(Cc4ccc(F)cc4)s3)cn2C[C@H]1[C@H](C)OC [Example 333] | 8.12
CO[C@@H](C)[C@@H]1Cn2cc(-c3nnc(Cc4ccc(F)cc4)s3)c(=O)c(O)c2C(=O)N1C(C)C [Example 334] | 8.04
CN(C)C(=O)[C@@]1(C)CN(C)C(=O)c2c(O)c(=O)c(-c3nnc(Cc4ccc(F)cc4F)s3)cn21 [Example 335] | 8.01
CN(C)C(=O)[C@@]1(C)CN(C)C(=O)c2c(O)c(=O)c(-c3ncc(Cc4ccc(F)cc4F)s3)cn21 [Example 336] | 8.14
CCC(CC)N1C[C@H](COC)n2cc(-c3nnc(Cc4ccc(F)cc4)s3)c(=O)c(O)c2C1=O [Example 337] | 7.77

SMILES | pIC50
CO[C@H](C)[C@@H]1CN(C(C)C)C(=O)c2c(O)c(=O)c(-c3nnc(Cc4ccc(F)cc4)s3)cn21 [Example 338] | 8.15
COC[C@H]1[C@@H](C)n2cc(-c3nnc(Cc4ccc(F)cc4)s3)c(=O)c(O)c2C(=O)N1C(C)C [Example 353] | 7.89
CC(C)N1C(=O)c2c(O)c(=O)c(-c3nnc(Cc4ccc(F)cc4)s3)cn2C[C@H]1CO [Example 354] | 8.10
CCN1C(=O)c2c(O)c(=O)c(-c3nnc(Cc4ccc(F)cc4)s3)cn2CC1(C)C [Example 355] | 8.18
COC[C@@H]1[C@H](C)N(C(C)C)C(=O)c2c(O)c(=O)c(-c3nnc(Cc4ccc(F)cc4)s3)cn21 [Example 356] | 8.05
CCCN1C[C@H](COCC)n2cc(-c3nnc(Cc4ccc(F)cc4)s3)c(=O)c(O)c2C1=O [Example 357] | 8.14
CC(C)N1C[C@H](Cn2cncn2)n2cc(-c3nnc(Cc4ccc(F)cc4)s3)c(=O)c(O)c2C1=O [Example 358] | 7.92
CC(C)N1C[C@H](Cn2cnnn2)n2cc(-c3nnc(Cc4ccc(F)cc4)s3)c(=O)c(O)c2C1=O [Example 359] | 8.32
CC(C)N1C[C@H](CS(=O)(=O)C(C)(C)C)n2cc(-c3nnc(Cc4ccc(F)cc4)s3)c(=O)c(O)c2C1=O [Example 360] | 7.96
CCOC[C@H]1CN(C(C)(C)C)C(=O)c2c(O)c(=O)c(-c3nnc(Cc4ccc(F)cc4)s3)cn21 [Example 361] | 7.82
CCCCN1C[C@H](COCCOC)n2cc(-c3nnc(Cc4ccc(F)cc4)s3)c(=O)c(O)c2C1=O [Example 362] | 8.00
CCCOC[C@H]1CN(C(C)C)C(=O)c2c(O)c(=O)c(-c3nnc(Cc4ccc(F)cc4)s3)cn21 [Example 363] | 8.06
CCCCOC[C@H]1CN(C(C)C)C(=O)c2c(O)c(=O)c(-c3nnc(Cc4ccc(F)cc4)s3)cn21 [Example 364] | 8.00
CC(C)OC[C@H]1CN(C(C)C)C(=O)c2c(O)c(=O)c(-c3nnc(Cc4ccc(F)cc4)s3)cn21 [Example 365] | 7.92
CCC(OC)[C@H]1CN(C(C)C)C(=O)c2c(O)c(=O)c(-c3nnc(Cc4ccc(F)cc4)s3)cn21 (some centres unmarked) [Example 382] | 8.06
CCC(OC)[C@H]1CN(C(C)C)C(=O)c2c(O)c(=O)c(-c3nnc(Cc4ccc(F)cc4)s3)cn21 (some centres unmarked) [Example 383] | 8.10
CO[C@@H](C)COC[C@H]1CN(C2CC2)C(=O)c2c(O)c(=O)c(-c3nnc(Cc4ccc(F)cc4)s3)cn21 [Example 384] | 7.92
CO[C@@H](C)COC[C@H]1CN(C(C)C)C(=O)c2c(O)c(=O)c(-c3nnc(Cc4ccc(F)cc4)s3)cn21 [Example 385] | 8.09
CO[C@H](C)[C@H]1CN(C(C)C)C(=O)c2c(O)c(=O)c(-c3ncc(Cc4ccc(F)cc4)s3)cn21 [Example 386] | 7.82
CO[C@H](C)[C@@H]1CN(C(C)C)C(=O)c2c(O)c(=O)c(-c3ncc(Cc4ccc(F)cc4)s3)cn21 [Example 387] | 7.96
CO[C@@H](C)[C@H]1CN(C(C)C)C(=O)c2c(O)c(=O)c(-c3ncc(Cc4ccc(F)cc4)s3)cn21 [Example 388] | 8.07
CCO[C@H](CC)[C@H]1CN(C(C)C)C(=O)c2c(O)c(=O)c(-c3nnc(Cc4ccc(F)cc4)s3)cn21 [Example 389] | 7.85
